# Laboratory results published in patent US10273226B2, “Pyrazolyl-heteroarylamides as pesticides” (Bayer Animal Health GmbH, priority 2014, dated 2019).
# Tested on: Ctenocephalides felis
# Experiment: Ctenocephalides felis in vitro contact test with adult cat fleas
# Type: in vivo
# Conditions: application rate 5 μg/cm^2 (500 g/ha); after 48 h; fleas dead or moribund
# Method in brief: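 Adult Ctenocephalides felis (5-10 per tube) were held 48 h at room temperature in tubes whose inner walls carried dried active ingredient, e.g. 5 μg/cm^2 from a 900 ppm acetone coating. Percent efficacy reflects fleas motionless or uncoordinated after being knocked to the tube base.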
row,Structure (SMILES),efficacy
1,Cn1nc(C(F)(F)C(F)(F)F)c(C(F)(F)F)c1-n1cc(-c2ccc(F)c(NC(=O)c3ccc(F)nc3)c2)cn1 [Example 1-100],100%
2,Cn1nc(C(F)(F)C(F)(F)F)c(C(F)(F)F)c1-n1cc(-c2cccc(NC(=O)c3ccncc3F)c2)cn1 [Example 1-004],100%

# Tested on: Rhipicephalus sanguineus
# Experiment: Rhipicephalus sanguineus in vitro contact test with adult brown dog ticks
# Type: in vivo
# Conditions: application rate 5 μg/cm^2 (500 g/ha); after 48 h; ticks dead or moribund
# Method in brief: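 Test tubes (25 ml) were coated by dissolving active ingredient in acetone p.a., diluting to the required concentration, and spreading 250 μl over the inner walls and base on an orbital shaker at 30 rpm for 2 h. Once dry, 5-10 adult Rhipicephalus sanguineus were added, and tubes were capped with perforated lids and kept horizontal in darkness at room temperature. At 48 h, ticks were knocked down and heated at 45-50° C. for up to 5 min. Those unable to climb away were counted dead or moribund, and efficacy ran from 0% to 100%.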
row,Structure (SMILES),efficacy
1,Cc1ccc(-c2cnn(-c3c(C(F)(F)F)c(C(F)(F)C(F)(F)F)nn3C)c2)cc1NC(=O)c1ccc(F)cc1 [Example 1-038],100%
2,Cn1nc(C(F)(F)C(F)(F)F)c(C(F)(F)F)c1-n1cc(-c2cnc(Cl)c(NC(=O)c3ccc(F)cc3)c2)cn1 [Example 2-001],100%
3,Cn1nc(C(F)(F)C(F)(F)F)c(C(F)(F)F)c1-n1cc(-c2ccc(F)c(NC(=O)c3ccc(F)nc3)c2)cn1 [Example 1-100],100%
4,Cn1nc(C(F)(F)C(F)(F)F)c(C(F)(F)F)c1-n1cc(-c2cccc(NC(=O)c3ccncc3F)c2)cn1 [Example 1-004],100%

# Tested on: Amblyomma hebraeum
# Experiment: Amblyomma hebraeum test (tick nymphs, immersion)
# Type: in vivo
# Conditions: application rate 100 ppm; tick nymphs immersed one minute; after 42 days
# Experimental: (§1) Solvent: dimethyl sulphoxide
# To produce an appropriate active ingredient formulation, 10 mg of active ingredient are mixed with 0.5 ml of dimethyl sulphoxide, and the concentrate is diluted with water to the desired concentration.
# Tick nymphs (Amblyomma hebraeum) are placed into perforated plastic cups and immersed in the desired concentration for one minute. The ticks are transferred on filter paper into a Petri dish and stored in a climate-controlled cabinet.
# After 42 days, the kill in % is determined. 100% means that all of the ticks have been killed; 0% means that none of the ticks have been killed.
row,Structure (SMILES),efficacy (kill in %)
1,Cc1ccc(-c2cnn(-c3c(C(F)(F)F)c(C(F)(F)C(F)(F)F)nn3C)c2)cc1NC(=O)c1ccc(F)cc1 [Example 1-038],100%

# Tested on: Boophilus microplus Parkhurst strain, SP-resistant
# Experiment: Boophilus microplus dip test
# Type: in vivo
# Conditions: application rate 100 ppm, assessed after 7 days
# Experimental: Boophilus microplus—Dip Test
# Test animals: cattle ticks (Boophilus microplus) Parkhurst strain, SP-resistant
# as §1
# 10 mg of active ingredient are dissolved in 0.5 ml of dimethyl sulphoxide. For the purpose of producing a suitable formulation, the active ingredient solution is diluted with water to the concentration desired in each case.
# This active ingredient formulation is pipetted into tubes. 8-10 adult engorged female cattle ticks (Boophilus microplus) are transferred into a further tube with holes. The tube is immersed into the active ingredient formulation, and all the ticks are completely wetted. After the liquid has run out, the ticks are transferred on filter discs into plastic dishes and stored in a climate-controlled room.
# Efficacy is assessed after 7 days by laying of fertile eggs. Eggs which are not visibly fertile are stored in a climate-controlled cabinet until the larvae hatch after about 42 days. An efficacy of 100% means that none of the ticks has laid any fertile eggs; 0% means that all the eggs are fertile.
row,Structure (SMILES),efficacy (laying of fertile eggs)
1,Cc1ccc(-c2cnn(-c3c(C(F)(F)F)c(C(F)(F)C(F)(F)F)nn3C)c2)cc1NC(=O)c1ccc(F)cc1 [Example 1-038],100%
2,Cn1nc(C(F)(F)C(F)(F)F)c(C(F)(F)F)c1-n1cc(-c2cnc(Cl)c(NC(=O)c3ccc(F)cc3)c2)cn1 [Example 2-001],80%
3,Cn1nc(C(F)(F)C(F)(F)F)c(C(F)(F)F)c1-n1cc(-c2ccc(F)c(NC(=O)c3ccc(F)nc3)c2)cn1 [Example 1-100],100%
4,Cn1nc(C(F)(F)C(F)(F)F)c(C(F)(F)F)c1-n1cc(-c2cccc(NC(=O)c3ccncc3F)c2)cn1 [Example 1-004],100%

# Tested on: Boophilus microplus
# Experiment: Boophilus microplus injection test
# Type: in vivo
# Conditions: application rate 20 μg/animal; injection into abdomen; assessed after 7 days
# Method in brief: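 Scoring was by fertile egg laying 7 days after injection, holding doubtful eggs until larvae hatched at about 42 days; 100% = no fertile eggs, 0% = all eggs fertile. Groups of 5 engorged adult female cattle ticks were each injected abdominally with 1 μl of compound in DMSO.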
row,Structure (SMILES),efficacy (laying of fertile eggs)
1,Cc1ccc(-c2cnn(-c3c(C(F)(F)F)c(C(F)(F)C(F)(F)F)nn3C)c2)cc1NC(=O)c1ccc(F)cc1 [Example 1-038],100%
2,Cn1nc(C(F)(F)C(F)(F)F)c(C(F)(F)F)c1-n1cc(-c2cnc(Cl)c(NC(=O)c3ccc(F)cc3)c2)cn1 [Example 2-001],100%
3,Cn1nc(C(F)(F)C(F)(F)F)c(C(F)(F)F)c1-n1cc(-c2ccc(F)c(NC(=O)c3ccc(F)nc3)c2)cn1 [Example 1-100],100%
4,Cn1nc(C(F)(F)C(F)(F)F)c(C(F)(F)F)c1-n1cc(-c2cccc(NC(=O)c3ccncc3F)c2)cn1 [Example 1-004],100%

# Tested on: Ctenocephalides felis
# Experiment: Ctenocephalides felis oral test
# Type: in vivo
# Conditions: application rate 100 ppm in citrated cattle blood; after 2 days
# Method in brief: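 DMSO stock, diluted in citrated cattle blood; ~20 unfed adult fleas feed through parafilm; % kill read at day 2 (0% = none killed).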
row,Structure (SMILES),efficacy (kill in %)
1,Cc1ccc(-c2cnn(-c3c(C(F)(F)F)c(C(F)(F)C(F)(F)F)nn3C)c2)cc1NC(=O)c1ccc(F)cc1 [Example 1-038],100%
2,Cn1nc(C(F)(F)C(F)(F)F)c(C(F)(F)F)c1-n1cc(-c2cnc(Cl)c(NC(=O)c3ccc(F)cc3)c2)cn1 [Example 2-001],100%
3,Cn1nc(C(F)(F)C(F)(F)F)c(C(F)(F)F)c1-n1cc(-c2ccc(F)c(NC(=O)c3ccc(F)nc3)c2)cn1 [Example 1-100],100%
4,Cn1nc(C(F)(F)C(F)(F)F)c(C(F)(F)F)c1-n1cc(-c2cccc(NC(=O)c3ccncc3F)c2)cn1 [Example 1-004],100%

# Tested on: Lucilia cuprina
# Experiment: Lucilia cuprina test
# Type: in vivo
# Conditions: application rate 100 ppm; L1 larvae; after 2 days
# Method in brief: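 Mortality read at 2 days as percent larvae killed (100% = all, 0% = none). Test used roughly 20 first-instar larvae on minced horsemeat dosed with water-diluted DMSO formulation of compound.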
row,Structure (SMILES),efficacy (kill in %)
1,Cc1ccc(-c2cnn(-c3c(C(F)(F)F)c(C(F)(F)C(F)(F)F)nn3C)c2)cc1NC(=O)c1ccc(F)cc1 [Example 1-038],100%
2,Cn1nc(C(F)(F)C(F)(F)F)c(C(F)(F)F)c1-n1cc(-c2cnc(Cl)c(NC(=O)c3ccc(F)cc3)c2)cn1 [Example 2-001],100%
3,Cn1nc(C(F)(F)C(F)(F)F)c(C(F)(F)F)c1-n1cc(-c2ccc(F)c(NC(=O)c3ccc(F)nc3)c2)cn1 [Example 1-100],100%
4,Cn1nc(C(F)(F)C(F)(F)F)c(C(F)(F)F)c1-n1cc(-c2cccc(NC(=O)c3ccncc3F)c2)cn1 [Example 1-004],100%

# Tested on: Musca domestica
# Experiment: Musca domestica test
# Type: in vivo
# Conditions: application rate 100 ppm; adult houseflies; after 2 days
# Method in brief: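 10 adult flies per vessel; sugar-solution sponge dosed with active ingredient formulation (DMSO concentrate diluted in water to desired concentration). Read-out: % kill at 2 days.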
row,Structure (SMILES),efficacy (kill in %)
1,Cn1nc(C(F)(F)C(F)(F)F)c(C(F)(F)F)c1-n1cc(-c2cnc(Cl)c(NC(=O)c3ccc(F)cc3)c2)cn1 [Example 2-001],100%
2,Cn1nc(C(F)(F)C(F)(F)F)c(C(F)(F)F)c1-n1cc(-c2ccc(F)c(NC(=O)c3ccc(F)nc3)c2)cn1 [Example 1-100],100%
3,Cn1nc(C(F)(F)C(F)(F)F)c(C(F)(F)F)c1-n1cc(-c2cccc(NC(=O)c3ccncc3F)c2)cn1 [Example 1-004],100%

# Tested on: Myzus persicae
# Experiment: Myzus persicae spray test
# Type: in vivo
# Conditions: application rate 100 g/ha; after 6 days
# Experimental: Myzus persicae—Spray Test
# To produce an appropriate active ingredient formulation, 1 part by weight of active ingredient is dissolved using the specified parts by weight of solvent and made up with water containing an emulsifier concentration of 1000 ppm until the desired concentration is attained. To produce further test concentrations, the preparation is diluted with emulsifier-containing water.
# Discs of Chinese cabbage leaves (Brassica pekinensis) infested by all stages of the green peach aphid (Myzus persicae) are sprayed with an active ingredient formulation of the desired concentration.
# After 6 days, efficacy in % is determined. 100% means that all the aphids have been killed; 0% means that none of the aphids have been killed.
row,Structure (SMILES),efficacy
1,Cn1nc(C(F)(F)C(F)(F)F)c(C(F)(F)F)c1-n1cc(-c2ccc(F)c(NC(=O)c3ccc(F)nc3)c2)cn1 [Example 1-100],100%

# Tested on: Phaedon cochleariae
# Experiment: Phaedon cochleariae spray test
# Type: in vivo
# Conditions: application rate 100 g/ha; larvae; after 7 days
# Method in brief: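 Mortality of Phaedon larvae, in %, was read 7 days after release onto sprayed, dried Brassica pekinensis leaf discs. Test dilutions were prepared in water with 1000 ppm emulsifier. A score of 0% means no larvae died and 100% means all were killed.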
row,Structure (SMILES),efficacy
1,Cc1ccc(-c2cnn(-c3c(C(F)(F)F)c(C(F)(F)C(F)(F)F)nn3C)c2)cc1NC(=O)c1ccc(F)cc1 [Example 1-038],100%
2,Cn1nc(C(F)(F)C(F)(F)F)c(C(F)(F)F)c1-n1cc(-c2cnc(Cl)c(NC(=O)c3ccc(F)cc3)c2)cn1 [Example 2-001],100%
3,Cn1nc(C(F)(F)C(F)(F)F)c(C(F)(F)F)c1-n1cc(-c2ccc(F)c(NC(=O)c3ccc(F)nc3)c2)cn1 [Example 1-100],100%
4,Cn1nc(C(F)(F)C(F)(F)F)c(C(F)(F)F)c1-n1cc(-c2cccc(NC(=O)c3ccncc3F)c2)cn1 [Example 1-004],100%

# Tested on: Spodoptera frugiperda
# Experiment: Spodoptera frugiperda spray test
# Type: in vivo
# Conditions: application rate 100 g/ha; caterpillars; after 7 days
# Method in brief: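 Percent kill of armyworm caterpillars was scored 7 days after they were placed on dried, sprayed Zea mays leaf discs. Spray solutions were made by dissolving active ingredient in solvent and diluting with 1000 ppm emulsifier water.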
row,Structure (SMILES),efficacy
1,Cc1ccc(-c2cnn(-c3c(C(F)(F)F)c(C(F)(F)C(F)(F)F)nn3C)c2)cc1NC(=O)c1ccc(F)cc1 [Example 1-038],100%
2,Cn1nc(C(F)(F)C(F)(F)F)c(C(F)(F)F)c1-n1cc(-c2cnc(Cl)c(NC(=O)c3ccc(F)cc3)c2)cn1 [Example 2-001],100%
3,Cn1nc(C(F)(F)C(F)(F)F)c(C(F)(F)F)c1-n1cc(-c2ccc(F)c(NC(=O)c3ccc(F)nc3)c2)cn1 [Example 1-100],100%
4,Cn1nc(C(F)(F)C(F)(F)F)c(C(F)(F)F)c1-n1cc(-c2cccc(NC(=O)c3ccncc3F)c2)cn1 [Example 1-004],100%

# Tested on: Tetranychus urticae
# Experiment: Tetranychus urticae spray test, OP-resistant
# Type: in vivo
# Conditions: application rate 100 g/ha; after 6 days
# Method in brief: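 Percent kill is assessed 6 days after spraying infested Phaseolus vulgaris leaf discs, with all mite stages present. Compound is applied as a solvent/emulsifier aqueous formulation at the desired concentration.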
row,Structure (SMILES),efficacy
1,Cc1ccc(-c2cnn(-c3c(C(F)(F)F)c(C(F)(F)C(F)(F)F)nn3C)c2)cc1NC(=O)c1ccc(F)cc1 [Example 1-038],100%
2,Cn1nc(C(F)(F)C(F)(F)F)c(C(F)(F)F)c1-n1cc(-c2cnc(Cl)c(NC(=O)c3ccc(F)cc3)c2)cn1 [Example 2-001],100%
3,Cn1nc(C(F)(F)C(F)(F)F)c(C(F)(F)F)c1-n1cc(-c2ccc(F)c(NC(=O)c3ccc(F)nc3)c2)cn1 [Example 1-100],100%
4,Cn1nc(C(F)(F)C(F)(F)F)c(C(F)(F)F)c1-n1cc(-c2cccc(NC(=O)c3ccncc3F)c2)cn1 [Example 1-004],100%
